Data published in US12365677B2, “Degraders that target proteins via KEAP1” (DANA-FARBER CANCER INSTITUTE, INC., priority 2018, dated 2025).

Legend:
Format in all cases: cell-based
[1] = test system: BRD2-BD1, BRD2-BD2, BRD3-BD1, BRD3-BD2, BRD4-BD1, BRD4-BD2 as GFP fusion proteins; experiment: FACS eGFP/mCherry reporter cell lines for single bromodomains, degradation compared across bromodomains; conditions: concentration series starting at 20 μM, 5× dilution, 24 hours at 37° C.
Description: (§1) To evaluate the activity of KEAP1-BRD targeting degraders in the cell, FACS-enabled stable reporter cell lines for single Bromodomain (BD) of the BRD2, 3 and 4 proteins were developed using the pCDNA5/FRT vector of the FLp-In system and followed the manufacturer's protocol.
(§2) A DNA sequence was constructed where a single BD (BD1 or BD2) of a BRD protein was tagged at the C-terminus with an enhanced Green Fluorescent Protein (eGFP). This sequence was followed by a P2A linker and a sequence that codes for mCherry fluorescent protein. The P2A linker that is located between the eGFP-tagged protein and the mCherry causes a single cut in the backbone amide bonds of the polypeptide during the translation of the mRNA, resulting in generation of two polypeptide chains, an eGFP-tagged protein and a mCherry protein. The expression level of these two polypeptides is therefore identical as they originate from a single mRNA, making the mCherry signal an expression level reporter as an internal reference. […]
(§3) The treated cells were then harvested by trypsin digest, brought to a volume of 200 μL with DMEM medium supplemented with 10% FBS and transferred to a 96-well assay plate for FACS reading. The eGFP/RFP ratio for each condition was then calculated and normalized against the zero-compound condition and plotted. […]

[2] = molecular target: T1, BRD2^BD1 (Homo sapiens, UniProt P25440); experiment: Rescue of degradation in reporter cell line by pre-treatment with inhibitors (compound 9); conditions: pre-treated with 10 μM JQ1 for 1 hour, then concentration series of the degrader for 24 hours
T1 construct: a single BD (BD1 or BD2) of a BRD protein was tagged at the C-terminus with an enhanced Green Fluorescent Protein (eGFP); P2A linker (part left after the co-translational cut; mCherry is released as a separate chain) (C); expressed in transfected cells
T1 sequence (P25440 74-180 limits assumed): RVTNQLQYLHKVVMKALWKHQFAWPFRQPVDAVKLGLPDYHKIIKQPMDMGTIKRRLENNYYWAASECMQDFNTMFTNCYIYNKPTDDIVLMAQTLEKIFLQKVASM
T1 sequence (Q14145 whole entry, further chain): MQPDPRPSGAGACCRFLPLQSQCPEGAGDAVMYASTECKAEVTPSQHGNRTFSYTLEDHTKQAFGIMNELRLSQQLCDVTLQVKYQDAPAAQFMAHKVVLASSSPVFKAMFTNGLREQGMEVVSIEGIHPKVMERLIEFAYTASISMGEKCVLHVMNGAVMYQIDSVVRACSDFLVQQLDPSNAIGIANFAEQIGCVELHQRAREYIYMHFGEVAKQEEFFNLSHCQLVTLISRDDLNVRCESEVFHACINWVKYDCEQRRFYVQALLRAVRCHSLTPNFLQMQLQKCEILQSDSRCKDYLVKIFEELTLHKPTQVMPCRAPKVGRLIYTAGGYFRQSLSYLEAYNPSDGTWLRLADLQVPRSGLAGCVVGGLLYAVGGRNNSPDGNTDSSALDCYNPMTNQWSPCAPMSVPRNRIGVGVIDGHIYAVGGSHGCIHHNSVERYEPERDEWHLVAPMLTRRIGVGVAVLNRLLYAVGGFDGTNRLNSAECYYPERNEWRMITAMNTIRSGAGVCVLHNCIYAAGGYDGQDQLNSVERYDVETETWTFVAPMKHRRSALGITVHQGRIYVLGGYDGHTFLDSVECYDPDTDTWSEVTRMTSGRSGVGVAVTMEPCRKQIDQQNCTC
Description: as §1
(§4) A DNA sequence was constructed where a single BD (BD1 or BD2) of a BRD protein was tagged at the C-terminus with an enhanced Green Fluorescent Protein (eGFP). This sequence was followed by a P2A linker and a sequence that codes for mCherry fluorescent protein. The P2A linker that is located between the eGFP-tagged protein and the mCherry causes a single cut in the backbone amide bonds of the polypeptide during the translation of the mRNA, resulting in generation of two polypeptide chains, an eGFP-tagged protein and a mCherry protein. The expression level of these two polypeptides is therefore identical as they originate from a single mRNA, making the mCherry signal an expression level reporter as an internal reference.
(§5) The reporter cell lines were seeded on a 48-well plate the day before. […]
as §3

[3] = molecular target: T2, BRD2^BD1 (Homo sapiens, UniProt P25440+Q14145); experiment: as above; conditions: pre-treated with 10 μM MLN4924 for 1 hour, then concentration series of the degrader for 24 hours
T2 construct: a single BD (BD1 or BD2) of a BRD protein was tagged at the C-terminus with an enhanced Green Fluorescent Protein (eGFP); P2A linker (part left after the co-translational cut; mCherry is released as a separate chain) (C); expressed in transfected cells
T2 sequence (P25440 74-180 limits assumed): as the sequence (P25440 74-180 limits assumed) above
T2 sequence (Q14145 whole entry): as the sequence (Q14145 whole entry, further chain) above
Description: as §1, §4, §5, §3

[4] = molecular target: T3, BRD3 (Homo sapiens, UniProt Q15059); experiment: Immunoblot of MM.1S multiple myeloma cells; conditions: MM.1S cells
T3 construct: endogenous in cells; host or cells: MM.1S multiple myeloma cells
T3 sequence (Q15059 whole entry): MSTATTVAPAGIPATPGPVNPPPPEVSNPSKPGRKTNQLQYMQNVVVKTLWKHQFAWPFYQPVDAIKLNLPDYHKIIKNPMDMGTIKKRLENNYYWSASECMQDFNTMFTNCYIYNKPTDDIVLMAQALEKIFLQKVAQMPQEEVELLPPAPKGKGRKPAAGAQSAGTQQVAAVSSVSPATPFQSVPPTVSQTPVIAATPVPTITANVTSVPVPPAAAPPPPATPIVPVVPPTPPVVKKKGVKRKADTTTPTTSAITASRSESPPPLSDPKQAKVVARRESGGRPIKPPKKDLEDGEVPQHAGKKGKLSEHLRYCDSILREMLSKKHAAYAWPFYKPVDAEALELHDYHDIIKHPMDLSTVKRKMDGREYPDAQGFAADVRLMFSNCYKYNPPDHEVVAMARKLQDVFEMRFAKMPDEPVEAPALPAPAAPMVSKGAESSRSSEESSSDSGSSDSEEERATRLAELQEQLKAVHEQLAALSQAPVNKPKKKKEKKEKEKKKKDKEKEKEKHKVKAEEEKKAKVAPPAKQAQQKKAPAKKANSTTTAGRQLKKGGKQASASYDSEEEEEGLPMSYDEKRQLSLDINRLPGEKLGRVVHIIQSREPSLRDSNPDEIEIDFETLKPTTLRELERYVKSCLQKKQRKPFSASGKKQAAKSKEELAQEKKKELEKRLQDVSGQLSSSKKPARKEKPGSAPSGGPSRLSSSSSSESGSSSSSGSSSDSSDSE
Protocol: (§6) MM.1S multiple myeloma cells were treated with 0, 1, 5 μM bifunctional compound 1 and 9 or bifunctional compound 20 (0.5 μM, as a positive control, known degrader of BRD) for 14 or 24 h, then lysed and immunoblotted with antibodies to BRD2, BRD3, BRD4 and β-Actin.
(§7) MM.1S multiple myeloma cells were treated with 0, 1, 5 μM bifunctional compound 1 and 9 or bifunctional compound 20 (0.5 μM, as a positive control) for 14 or 24 h, then lysed and immunoblotted with antibodies to BRD2, BRD3, BRD4 and β-Actin.

[5] = molecular target: T4, BRD4 (Homo sapiens, UniProt O60885); experiment: Immunoblot of MM.1S multiple myeloma cells; conditions: MM.1S cells
T4 construct: endogenous in cells; host or cells: MM.1S multiple myeloma cells
Protocol: as §6, §7

[6] = molecular target: T5, BRD2 (Homo sapiens, UniProt P25440); experiment: TMT quantitative proteomics, change in relative protein abundance in HEK293T cells; parameters: endogenous in cells; host or cells: HEK293T cells; conditions: 5 μM, 6 hours
T5 sequence (P25440 whole entry): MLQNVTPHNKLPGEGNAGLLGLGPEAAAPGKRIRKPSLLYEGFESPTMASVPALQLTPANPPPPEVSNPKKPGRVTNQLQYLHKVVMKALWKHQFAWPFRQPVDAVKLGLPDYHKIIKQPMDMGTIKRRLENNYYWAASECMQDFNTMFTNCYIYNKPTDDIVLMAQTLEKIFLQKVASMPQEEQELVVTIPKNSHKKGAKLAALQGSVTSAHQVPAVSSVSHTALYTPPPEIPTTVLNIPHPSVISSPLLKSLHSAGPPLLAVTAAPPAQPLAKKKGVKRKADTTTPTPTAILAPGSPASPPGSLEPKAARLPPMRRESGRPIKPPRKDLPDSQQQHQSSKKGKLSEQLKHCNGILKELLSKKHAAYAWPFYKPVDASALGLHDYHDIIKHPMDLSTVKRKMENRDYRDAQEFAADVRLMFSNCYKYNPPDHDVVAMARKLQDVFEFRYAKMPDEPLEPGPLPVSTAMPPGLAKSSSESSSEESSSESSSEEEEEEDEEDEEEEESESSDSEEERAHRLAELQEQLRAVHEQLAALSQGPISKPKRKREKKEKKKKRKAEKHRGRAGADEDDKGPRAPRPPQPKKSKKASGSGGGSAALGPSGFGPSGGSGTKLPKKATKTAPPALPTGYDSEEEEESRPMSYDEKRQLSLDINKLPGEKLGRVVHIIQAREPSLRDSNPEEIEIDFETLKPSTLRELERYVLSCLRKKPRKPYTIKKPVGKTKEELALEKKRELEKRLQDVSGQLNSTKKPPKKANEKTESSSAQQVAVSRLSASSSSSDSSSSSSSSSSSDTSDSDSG
Protocol: Lysis buffer (8 M Urea, 50 mM NaCl, 50 mM 4-(2hydroxyethyl)-1-piperazineethanesulfonic acid (EPPS) pH 8.5. Protease and Phosphatase inhibitors from Roche) was added to the cell pellets and homogenized by 20 passes through a 21 gauge (1.25 in. long) needle to achieve a cell lysate with a protein concentration between 1-4 mg/mL. A micro-BCA assay (Pierce™) was used to determine the final protein concentration in the cell lysate. 200 μg of protein for each sample were reduced and alkylated as previously described. Proteins were precipitated using methanol/chloroform. In brief, four volumes of methanol were added to the cell lysate, followed by one volume of chloroform, and finally three volumes of water. The mixture was vortexed and centrifuged to separate the chloroform phase from the aqueous phase. […]
Precipitated protein was resuspended in 4 M urea, 50 mM HEPES pH 7.4, followed by dilution to 1 M urea with the addition of 200 mM EPPS, pH 8. […] The sample channels were combined at a 1:1:1:1:1:1:1:1:1:1 ratio, desalted using C18 solid phase extraction cartridges (Waters™) and analyzed by LC-MS for channel ratio comparison.
Samples were then combined using the adjusted volumes determined in the channel ratio analysis and dried down in a speed vacuum. […]

[7] = molecular target: T5, BRD2; experiment: Immunoblot of MM.1S multiple myeloma cells; parameters: endogenous in cells; host or cells: MM.1S multiple myeloma cells; conditions: MM.1S cells
Protocol: as §6, §7

[8] = molecular target: T6, BRD2BD2 (Homo sapiens, UniProt P25440); experiment: Rescue of degradation in reporter cell line by pre-treatment with inhibitors (compound 1); conditions: then concentration series of the degrader for 24 hours
T6 construct: a single BD (BD1 or BD2) of a BRD protein was tagged at the C-terminus with an enhanced Green Fluorescent Protein (eGFP); P2A linker (part left after the co-translational cut; mCherry is released as a separate chain) (C); expressed in transfected cells
T6 sequence (P25440 344-453): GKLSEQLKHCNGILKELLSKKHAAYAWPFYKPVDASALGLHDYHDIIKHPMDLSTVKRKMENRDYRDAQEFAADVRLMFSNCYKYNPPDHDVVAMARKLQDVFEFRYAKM
Description: as §1, §2
The treated cells were then harvested by trypsin digest, brought to a volume of 200 μL with DMEM medium supplemented with 10% FBS and transferred to a 96-well assay plate for FACS reading. The eGFP/RFP ratio for each condition was then calculated and normalized against the zero-compound condition and plotted.
The rescue of BRD2BD2 degradation with two inhibitors JQ1 and MLN4924 was then determined. […]

Row | SMILES | degradation of BRD bromodomain reporters (normalized eGFP/RFP ratio), comparison between bromodomains [1] | rescue of BRD2^BD1 degradation by JQ1 [2] | rescue of BRD2^BD1 degradation by MLN4924 [3] | degradation of BRD3 (immunoblot) ([4]; 5 μM, 24 h) | degradation of BRD4 (immunoblot) ([5]; 5 μM, 24 h) | BRD2 degradation (relative protein abundance vs DMSO) [6] | degradation of BRD2 (immunoblot) ([7]; 5 μM, 24 h) | rescue of BRD2BD2 degradation by JQ1 ([8]; pre-treated with 10 μM JQ1 for 1 hour) | rescue of BRD2BD2 degradation by MLN4924 ([8]; pre-treated with 10 μM MLN4924 for 1 hour) | degradation of BRD3 (immunoblot) ([4]; 1 μM, both 14 and 24 h) | degradation of BRD3 (immunoblot), hook effect ([4]; 5 μM, 14 or 24 h) | degradation of BRD4 (immunoblot) ([5]; 1 μM, both 14 and 24 h) | degradation of BRD4 (immunoblot), hook effect ([5]; 5 μM, 14 or 24 h) | degradation of BRD2 (immunoblot) ([7]; 1 μM, both 14 and 24 h) | degradation of BRD2 (immunoblot), hook effect ([7]; 5 μM, 14 or 24 h)
1 | COc1cc(C(CC(=O)O)c2ccc(C)c(CN(C)S(=O)(=O)c3ccc(OCCCCCCNC(=O)C[C@@H]4N=C(c5ccc(Cl)cc5)c5c(sc(C)c5C)-n5c(C)nnc54)cc3)c2)cc2nnn(C)c12 (stereo partly drawn) [compound 9, 3-(3-((4-(6-(2-((6S)-4-(4-chlorophenyl)-2,3,9-trimethyl-6H-thieno[3,2-f][1,2,4]triazolo[4,3-a][1,4]diazepin-6-yl)acetamido)hexyloxy)-N-methylphenylsulfonamido)methyl)-4-methylphenyl)-3-(7-methoxy-1-methyl-1H-benzo[d][1,2,3]triazol-5-yl)propanoic acid] | modest preference for BRD2^BD1 and BRD4^BD1 | can be rescued by JQ1 | rescued by the neddylation inhibitor, MLN4924 | slightly degraded | slightly degraded | BRD2 degradation was observed | slightly degraded |  |  |  |  |  |  |  | 
2 | COc1cc(C(CC(=O)O)c2ccc(C)c(CN3C[C@@H](C)Oc4cc(CCCCCCNC(=O)C[C@@H]5N=C(c6ccc(Cl)cc6)c6c(sc(C)c6C)-n6c(C)nnc65)ccc4S3(=O)=O)c2)cc2nnn(C)c12 (stereo partly drawn) [compound 1, 3-(3-(((R)-7-(6-(2-((S)-4-(4-chlorophenyl)-2,3,9-trimethyl-6H-thieno[3,2-f][1,2,4]triazolo[4,3-a][1,4]diazepin-6-yl)acetamido)hexyl)-4-methyl-1,1-dioxido-3,4-dihydro-2H-benzo[b][1,4,5]oxathiazepin-2-yl)methyl)-4-methylphenyl)-3-(7-methoxy-1-methyl-1H-benzo[d][1,2,3]triazol-5-yl)propanoic acid] | with the exception of BRD4BD1, bifunctional compound 1 targeted BRD-BD proteins with similar efficiency |  |  |  |  |  |  | can be rescued by JQ1 | rescued by the neddylation inhibitor, MLN4924 | strongly induced the degradation | a decrease in BRD2, BRD3 and BRD4 degradation were observed | strongly induced the degradation | a decrease in BRD2, BRD3 and BRD4 degradation were observed | slightly decreased the abundance | a decrease in BRD2, BRD3 and BRD4 degradation were observed
